This passage reports IC50 results from BindingDB's records for doi:10.1016/j.bmcl.2017.01.038 (Novartis Institutes For Biomedical Research, 2017).

The target in this assay is Protein kinase C beta type (Mus musculus) (UniProt P68404). In words: Inhibition of PKCbeta in mouse B cells assessed as reduction in IgM-stimulated cell proliferation.
Sequence of Protein kinase C beta type (Mus musculus) (P68404 whole entry, looked up): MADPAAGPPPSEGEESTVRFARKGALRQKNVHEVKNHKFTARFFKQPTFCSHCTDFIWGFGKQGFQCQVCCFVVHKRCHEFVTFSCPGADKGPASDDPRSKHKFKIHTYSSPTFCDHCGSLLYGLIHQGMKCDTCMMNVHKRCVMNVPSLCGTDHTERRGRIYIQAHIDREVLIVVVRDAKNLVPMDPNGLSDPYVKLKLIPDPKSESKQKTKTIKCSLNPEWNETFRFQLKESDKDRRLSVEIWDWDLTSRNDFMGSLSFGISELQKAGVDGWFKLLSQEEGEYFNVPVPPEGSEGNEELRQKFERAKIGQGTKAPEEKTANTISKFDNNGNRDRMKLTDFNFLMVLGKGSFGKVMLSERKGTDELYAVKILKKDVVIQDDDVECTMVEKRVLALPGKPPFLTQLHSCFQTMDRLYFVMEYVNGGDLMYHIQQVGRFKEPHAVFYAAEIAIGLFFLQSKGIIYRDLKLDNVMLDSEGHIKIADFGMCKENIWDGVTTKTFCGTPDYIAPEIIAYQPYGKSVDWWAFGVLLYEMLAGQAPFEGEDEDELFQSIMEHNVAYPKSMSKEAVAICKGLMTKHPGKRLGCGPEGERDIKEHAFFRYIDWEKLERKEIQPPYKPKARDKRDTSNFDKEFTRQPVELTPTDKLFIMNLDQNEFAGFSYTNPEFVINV

For the molecule `CN(C)Cc1ccc2ccc(Cl)c(C3=C(c4cn(C)c5ccccc45)C(=O)NC3=O)c2c1`, the IC50 was 296 nM.
For the molecule `CN1CCN(c2nc(C3=C(c4c[nH]c5ccccc45)C(=O)NC3=O)c3ccccc3n2)CC1` [Sotrastaurin], the half-maximal inhibitory concentration (IC50) is 234 nM.

What is called IC50 is the concentration that gives 50% inhibition.
